Publication PMC6658998, “Pharmacological characterization of the seven human NOX isoforms and their inhibitors” (Redox Biology, 2019)

What was measured:
[1] = target: T1, NOX2 (Homo sapiens, UniProt P04839); assay: NOX2 activity in purified PLB-985 membranes (WST-1, CBA); assay type: biochemical
T1 sequence (P04839 2-570 limits assumed): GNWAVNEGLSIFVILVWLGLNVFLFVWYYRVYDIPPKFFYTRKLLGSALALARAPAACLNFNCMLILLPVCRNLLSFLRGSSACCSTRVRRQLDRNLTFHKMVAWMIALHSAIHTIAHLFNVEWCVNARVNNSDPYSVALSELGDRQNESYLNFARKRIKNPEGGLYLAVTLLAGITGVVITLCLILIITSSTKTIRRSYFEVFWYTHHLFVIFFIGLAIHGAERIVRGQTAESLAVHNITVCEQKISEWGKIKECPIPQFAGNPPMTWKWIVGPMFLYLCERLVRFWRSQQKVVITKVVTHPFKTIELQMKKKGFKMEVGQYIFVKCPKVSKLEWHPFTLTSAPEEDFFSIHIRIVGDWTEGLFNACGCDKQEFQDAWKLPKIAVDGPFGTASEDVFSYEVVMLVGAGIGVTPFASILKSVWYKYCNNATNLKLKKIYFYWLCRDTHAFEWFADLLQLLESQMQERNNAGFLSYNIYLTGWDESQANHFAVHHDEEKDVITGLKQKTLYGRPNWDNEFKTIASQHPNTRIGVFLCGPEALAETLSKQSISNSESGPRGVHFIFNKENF
Description: PLB-985 (40 dishes 150 cm^2) were grown in suspension and differentiated by addition of 1.25% DMSO for 72 h. HEK293 cells expressing NOX5 (40 dishes 150 cm^2) were amplified until confluence and detached using trypsin-EDTA for 5 min followed by addition of 2 vol of pre-warmed complete growth media to inactivate trypsin. Collected cells were centrifuged at 4000 ×g for 10 min. Cells were washed with PBS and centrifuged at 1500 ×g for 10 min. The supernatant was discarded and the pellet was placed at −80 °C for at least 30 min. […] Samples were sonicated two times for 25 s (level 7, Branson Sonifier 250). Cell debris were removed by centrifugation at 800 ×g for 10 min at 4 °C. […] Protein concentration was determined with Bradford reagent using BSA as a standard. […]
NOX2 containing membranes were used at 10 μg/mL of proteins in a reaction mixture containing 90 nM recombinant RacQ61L, 45 nM recombinant p67Np47 N chimeric protein (consisting of a fusion of the N-termini of human p67phox [residues 1–210] and p47phox [residues 1–286]), 90 μM SDS, 1 μM FAD-Na2 and 1 mM WST-1 or 800 μM CBA in PBS. The reaction mixture was dispensed in 96-well plates (transparent for WST-1 absorbance, black for CBA fluorescence) at 80 μL/well and the plate was incubated for 5 min at 37 °C. […]

[2] = target: NOX4 (Homo sapiens, UniProt Q9NPH5); conditions: NOX4 T-rex cells, tetracycline 24 h, antimycin A 1 μM, compound 10 μM
Chain of NOX4 (Homo sapiens, UniProt Q9NPH5) (Q9NPH5 whole entry, canonical isoform): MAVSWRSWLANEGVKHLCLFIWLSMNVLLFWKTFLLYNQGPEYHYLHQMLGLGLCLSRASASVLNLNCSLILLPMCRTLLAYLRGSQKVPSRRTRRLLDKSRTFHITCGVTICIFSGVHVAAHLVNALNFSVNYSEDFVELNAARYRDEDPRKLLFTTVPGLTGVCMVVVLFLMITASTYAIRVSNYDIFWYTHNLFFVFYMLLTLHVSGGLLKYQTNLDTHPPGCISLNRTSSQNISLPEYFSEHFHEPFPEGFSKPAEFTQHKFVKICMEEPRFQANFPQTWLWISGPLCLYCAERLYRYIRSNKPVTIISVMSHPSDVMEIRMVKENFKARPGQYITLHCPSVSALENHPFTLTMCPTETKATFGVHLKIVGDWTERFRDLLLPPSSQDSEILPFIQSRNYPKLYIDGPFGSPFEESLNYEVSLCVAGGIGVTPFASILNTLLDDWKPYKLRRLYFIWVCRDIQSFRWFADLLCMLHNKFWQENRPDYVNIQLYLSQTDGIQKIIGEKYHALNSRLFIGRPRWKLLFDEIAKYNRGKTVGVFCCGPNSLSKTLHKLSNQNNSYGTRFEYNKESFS
Chain of NOX4 (Homo sapiens, UniProt Q9NPH5) (P13498 whole entry partner, canonical isoform): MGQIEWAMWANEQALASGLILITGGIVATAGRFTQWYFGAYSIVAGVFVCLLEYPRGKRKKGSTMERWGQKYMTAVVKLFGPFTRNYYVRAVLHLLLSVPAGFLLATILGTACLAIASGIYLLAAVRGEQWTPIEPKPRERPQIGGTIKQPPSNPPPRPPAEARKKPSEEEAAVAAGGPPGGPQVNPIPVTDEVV
Description: For NOX4-dependent oxygen consumption, NOX4 T-Rex HEK cells (50,000 cells/well) were plated onto poly-L-lysine coated XF24 cell culture microplates (Seahorse), treated with 1 μg/mL tetracycline and incubated at 37 °C with 5% CO2 for 24 h. One hour prior to assay, the medium was changed to DMEM without carbonate buffer supplemented with 10 mM HEPES, pH 7.4 and the cells were then incubated for 1 h at 37 °C in normal atmosphere. The baseline oxygen consumption rate (OCR) was recorded 3 times before rotenone (1 μM) and antimycin A (1 μM) were added to eliminate mitochondrial oxygen consumption and 1 OCR cycle was measured. Test compounds were added in the second injection and 4 OCR cycles were recorded. Each OCR cycle was as follows: 3 min mixing; 2 min waiting; 3 min measuring. The basal OCR in tetracycline-induced cells (prior to addition of blockers of mitochondrial respiration) was considered as 100%. Data were analysed using Wave XFe 2.1.0 software. At least three independent experiments were performed for each compound.

[3] = system: all NOX isoforms; conditions: compound 10 μM, NOX1-5, DUOX1, DUOX2 cell lines
[4] = target: NOX1; design: method as in PMID 27273790; conditions: documented values, measured using Amplex Red/HRP assay; cited from earlier work
[5] = target: NOX4; design: method as in PMID 27273790; conditions: documented values, measured using Amplex Red/HRP assay; cited from earlier work
[6] = target: NOX5; design: method as in PMID 27273790; conditions: documented values, measured using Amplex Red/HRP assay; cited from earlier work
[7] = target: NOX2; design: method as in PMID 27273790; conditions: documented values, measured using Amplex Red/HRP assay; cited from earlier work

Structure (SMILES): c1ccc2c(c1)[I+]c1ccccc1-2 [DPI, diphenylene iodonium chloride]
- Inhibitory activity in NOX2 membrane assay ([1]; WST-1 / CBA, concentration not given): potently inhibited
- Inhibition of NOX4-dependent (non-mitochondrial) oxygen consumption [2]: inhibited
- Inhibition of NOX isoforms in cell lines [3]: inhibits all NOX isoforms

Structure (SMILES): O=c1c2ccccc2[se]n1-c1ccccc1 [Ebselen, ebselen]
- Inhibition of NOX2-dependent signal in membranes ([1]; compound 50 μM): inhibited

Structure (SMILES): Cc1c2c(=O)n(-c3ccccc3Cl)[nH]c2cc(=O)n1Cc1ccccn1 [GKT136901]
- Ki NOX1 [4]: nanomolar range
- Ki NOX4 [5]: nanomolar range
- Ki NOX5 [6]: nanomolar range
- Ki NOX2 [7]: micromolar range
